Measurements from PubChem BioAssay AID1963423 (Molecular Pharmacology Branch, DTP, NCI, 2024).

Test system: 439559-082-T-J2-PDC complex spheroid growth
Assay: Anticancer human tumor 439559-082-T-J2-PDC patient-derived colon adenocarcinoma cell line growth inhibition [Asc]
Conditions: for IC50: curve of first compound; for viability, T/C: stronger effect = lower value
Method in brief: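 Concentration series start at each agent's clinical Cmax, or at 10 microM when none is established, and drop in half-log steps; agents are applied alone or together to complex spheroids built with HUVEC and hMSC.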

[1] = second compound 0.1 µM, first compound 0.0316 µM
[2] = second compound 0.1 µM, first compound 0.1 µM
[3] = second compound 0.1 µM, first compound 0.316 µM
[4] = second compound 0.1 µM, first compound 1 µM
[5] = second compound 0.1 µM, first compound 3.16 µM
[6] = second compound 0.1 µM, first compound 10 µM
[7] = second compound 0.316 µM, first compound 0.0316 µM
[8] = second compound 0.316 µM, first compound 0.1 µM
[9] = second compound 0.316 µM, first compound 0.316 µM
[10] = second compound 0.316 µM, first compound 1 µM
[11] = second compound 0.316 µM, first compound 3.16 µM
[12] = second compound 0.316 µM, first compound 10 µM
[13] = second compound 1 µM, first compound 0.0316 µM
[14] = second compound 1 µM, first compound 0.1 µM
[15] = second compound 1 µM, first compound 0.316 µM
[16] = second compound 1 µM, first compound 1 µM
[17] = second compound 1 µM, first compound 3.16 µM
[18] = second compound 1 µM, first compound 10 µM
[19] = second compound 3.16 µM, first compound 0.0316 µM
[20] = second compound 3.16 µM, first compound 0.1 µM
[21] = second compound 3.16 µM, first compound 0.316 µM
[22] = second compound 3.16 µM, first compound 1 µM
[23] = second compound 3.16 µM, first compound 3.16 µM
[24] = second compound 3.16 µM, first compound 10 µM
[25] = second compound 10 µM, first compound 0.0316 µM
[26] = second compound 10 µM, first compound 0.1 µM
[27] = second compound 10 µM, first compound 0.316 µM
[28] = second compound 10 µM, first compound 1 µM
[29] = second compound 10 µM, first compound 3.16 µM
[30] = second compound 10 µM, first compound 10 µM
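Further: spheroids exposed to agents for 7 days starting day 3 after seeding.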
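Wherever viability, T/C is given: percent of DMSO vehicle control viability with 100% = vehicle.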

Question: How did the IC50 (second compound 0.1 µM) turn out when `C=C(F)C(=O)N1CCN(c2nc(OCC3CCCN3C)nc3c2CCN(c2cccc4cccc(Cl)c24)C3)CC1CC#N` (stereo not given) + Cc1c(S(C)(=O)=O)c(-c2cc(F)cc(N3CCN(c4ccc(NS(=O)(=O)c5ccc(NC(CCN6CCC(C(=O)OCCCP(=O)(O)O)CC6)CSc6ccccc6)c(S(=O)(=O)C(F)(F)F)c5)cc4)CC3)c2)c(-c2ccc(Cl)cc2)n1C(C)C was run?
Answer: 5.15 µM

Question: And the IC50 (second compound 0.316 µM)?
Answer: 4.17 µM

Question: And the IC50 (second compound 1 µM)?
Answer: 4.17 µM

Question: And the IC50 (second compound 3.16 µM)?
Answer: 3.17 µM

Question: And the IC50 (second compound 10 µM)?
Answer: 2.78 µM

Question: What about the viability, T/C [1] of the same compound?
Answer: 96.8%

Question: And the viability, T/C [2]?
Answer: 107%

Question: What about the viability, T/C [3] of the same compound?
Answer: 95%

Question: What about the viability, T/C [4] of the same compound?
Answer: 88.6%

Question: What about the viability, T/C [5] of the same compound?
Answer: 78.4%

Question: What about the viability, T/C [6] of the same compound?
Answer: 14.2%

Question: What about the viability, T/C [7] of the same compound?
Answer: 95.3%

Question: And the viability, T/C [8]?
Answer: 106%

Question: What about the viability, T/C [9] of the same compound?
Answer: 98.5%

Question: What about the viability, T/C [10] of the same compound?
Answer: 77.7%

Question: And the viability, T/C [11]?
Answer: 69.2%

Question: What about the viability, T/C [12] of the same compound?
Answer: 4.6%

Question: What about the viability, T/C [13] of the same compound?
Answer: 95.8%

Question: What about the viability, T/C [14] of the same compound?
Answer: 94.5%

Question: And the viability, T/C [15]?
Answer: 103%

Question: What about the viability, T/C [16] of the same compound?
Answer: 84.5%

Question: What about the viability, T/C [17] of the same compound?
Answer: 66.6%

Question: And the viability, T/C [18]?
Answer: 0.51%

Question: And the viability, T/C [19]?
Answer: 79.1%

Question: And the viability, T/C [20]?
Answer: 95.3%

Question: What about the viability, T/C [21] of the same compound?
Answer: 93.4%

Question: And the viability, T/C [22]?
Answer: 71.7%

Question: What about the viability, T/C [23] of the same compound?
Answer: 51.6%

Question: And the viability, T/C [24]?
Answer: 0.43%

Question: And the viability, T/C [25]?
Answer: 68%

Question: And the viability, T/C [26]?
Answer: 85.8%

Question: What about the viability, T/C [27] of the same compound?
Answer: 86.3%

Question: And the viability, T/C [28]?
Answer: 65.8%

Question: What about the viability, T/C [29] of the same compound?
Answer: 48.5%

Question: And the viability, T/C [30]?
Answer: 2.9%

Question: What does the source list for `C=CC(=O)N1CCN(c2nc(=O)n(-c3c(C)ccnc3C(C)C)c3nc(-c4c(O)cccc4F)c(F)cc23)C(C)C1` (stereo not given) + Cc1c(S(C)(=O)=O)c(-c2cc(F)cc(N3CCN(c4ccc(NS(=O)(=O)c5ccc(NC(CCN6CCC(C(=O)OCCCP(=O)(O)O)CC6)CSc6ccccc6)c(S(=O)(=O)C(F)(F)F)c5)cc4)CC3)c2)c(-c2ccc(Cl)cc2)n1C(C)C?
Answer: IC50 (second compound 0.1 µM): > 10 µM; IC50 (second compound 0.316 µM): > 10 µM; IC50 (second compound 1 µM): > 10 µM; IC50 (second compound 3.16 µM): > 10 µM; IC50 (second compound 10 µM): > 10 µM; viability, T/C [1]: 97.6%; viability, T/C [2]: 112%; viability, T/C [3]: 99.2%; viability, T/C [4]: 97.4%; viability, T/C [5]: 109%; viability, T/C [6]: 99.8%; viability, T/C [7]: 93.5%; viability, T/C [8]: 107%; viability, T/C [9]: 108%; viability, T/C [10]: 98.2%; viability, T/C [11]: 96.6%; viability, T/C [12]: 88.3%; viability, T/C [13]: 99.1%; viability, T/C [14]: 102%; viability, T/C [15]: 105%; viability, T/C [16]: 88.9%; viability, T/C [17]: 89.8%; viability, T/C [18]: 91.6%; viability, T/C [19]: 99.1%; viability, T/C [20]: 101%; viability, T/C [21]: 103%; viability, T/C [22]: 89.1%; viability, T/C [23]: 88.1%; viability, T/C [24]: 94.6%; viability, T/C [25]: 78%; viability, T/C [26]: 80%; viability, T/C [27]: 80.5%; viability, T/C [28]: 73.8%; viability, T/C [29]: 87.6%; viability, T/C [30]: 81.3%

Question: With `CCN1C(C(=O)NC23CCC(C(=O)O)(CC2)CC3)C(c2cccc(Cl)c2F)C2(C(=O)Nc3cc(Cl)ccc32)C12CCCCC2` (stereo not given) + Cc1c(S(C)(=O)=O)c(-c2cc(F)cc(N3CCN(c4ccc(NS(=O)(=O)c5ccc(NC(CCN6CCC(C(=O)OCCCP(=O)(O)O)CC6)CSc6ccccc6)c(S(=O)(=O)C(F)(F)F)c5)cc4)CC3)c2)c(-c2ccc(Cl)cc2)n1C(C)C as the compound, how does the IC50 (second compound 0.1 µM) read?
Answer: > 3 µM

Question: And the IC50 (second compound 0.316 µM)?
Answer: > 3 µM

Question: What about the IC50 (second compound 1 µM) of the same compound?
Answer: > 3 µM

Question: And the IC50 (second compound 3.16 µM)?
Answer: > 3 µM

Question: What about the IC50 (second compound 10 µM) of the same compound?
Answer: > 3 µM

Question: What about the viability, T/C (second compound 0.1 µM, first compound 0.00949 µM) of the same compound?
Answer: 96.8%

Question: What about the viability, T/C (second compound 0.1 µM, first compound 0.03 µM) of the same compound?
Answer: 104%

Question: And the viability, T/C (second compound 0.1 µM, first compound 0.0949 µM)?
Answer: 102%

Question: And the viability, T/C (second compound 0.1 µM, first compound 0.3 µM)?
Answer: 98.6%

Question: And the viability, T/C (second compound 0.1 µM, first compound 0.949 µM)?
Answer: 95.4%

Question: What about the viability, T/C (second compound 0.1 µM, first compound 3 µM) of the same compound?
Answer: 93.1%

Question: And the viability, T/C (second compound 0.316 µM, first compound 0.00949 µM)?
Answer: 103%

Question: And the viability, T/C (second compound 0.316 µM, first compound 0.03 µM)?
Answer: 104%

Question: And the viability, T/C (second compound 0.316 µM, first compound 0.0949 µM)?
Answer: 102%

Question: And the viability, T/C (second compound 0.316 µM, first compound 0.3 µM)?
Answer: 87.8%

Question: And the viability, T/C (second compound 0.316 µM, first compound 0.949 µM)?
Answer: 97.9%

Question: What about the viability, T/C (second compound 0.316 µM, first compound 3 µM) of the same compound?
Answer: 86.2%

Question: What about the viability, T/C (second compound 1 µM, first compound 0.00949 µM) of the same compound?
Answer: 90.8%

Question: What about the viability, T/C (second compound 1 µM, first compound 0.03 µM) of the same compound?
Answer: 97%

Question: And the viability, T/C (second compound 1 µM, first compound 0.0949 µM)?
Answer: 99.7%

Question: What about the viability, T/C (second compound 1 µM, first compound 0.3 µM) of the same compound?
Answer: 84.5%

Question: And the viability, T/C (second compound 1 µM, first compound 0.949 µM)?
Answer: 88.5%

Question: What about the viability, T/C (second compound 1 µM, first compound 3 µM) of the same compound?
Answer: 79.3%

Question: And the viability, T/C (second compound 3.16 µM, first compound 0.00949 µM)?
Answer: 81.5%

Question: What about the viability, T/C (second compound 3.16 µM, first compound 0.03 µM) of the same compound?
Answer: 92%

Question: And the viability, T/C (second compound 3.16 µM, first compound 0.0949 µM)?
Answer: 91.4%

Question: And the viability, T/C (second compound 3.16 µM, first compound 0.3 µM)?
Answer: 89%

Question: What about the viability, T/C (second compound 3.16 µM, first compound 0.949 µM) of the same compound?
Answer: 82%

Question: And the viability, T/C (second compound 3.16 µM, first compound 3 µM)?
Answer: 67.8%

Question: What about the viability, T/C (second compound 10 µM, first compound 0.00949 µM) of the same compound?
Answer: 69.9%

Question: What about the viability, T/C (second compound 10 µM, first compound 0.03 µM) of the same compound?
Answer: 77.7%

Question: What about the viability, T/C (second compound 10 µM, first compound 0.0949 µM) of the same compound?
Answer: 74.3%

Question: And the viability, T/C (second compound 10 µM, first compound 0.3 µM)?
Answer: 69.5%

Question: And the viability, T/C (second compound 10 µM, first compound 0.949 µM)?
Answer: 74.1%

Question: What about the viability, T/C (second compound 10 µM, first compound 3 µM) of the same compound?
Answer: 57.3%
